# From ChEMBL document CHEMBL3817847, “Design and synthesis of fused soluble epoxide hydrolase/peroxisome proliferator-activated receptor modulators” (Medchemcomm, 2016)
# Calls of active or inactive are those of the source. No cut-off for these calls is given here.
# Key:
# [1] = biological target: T1, Peroxisome proliferator-activated receptor delta (Homo sapiens, UniProt Q03181); assay: Agonist activity at Gal4-tagged human PPARdelta ligand binding domain expressed in COS-7 cells measured after overnight incubation by dual-glo luciferase reporter gene assay; assay type: cell-based
# T1 sequence (Q03181 whole entry): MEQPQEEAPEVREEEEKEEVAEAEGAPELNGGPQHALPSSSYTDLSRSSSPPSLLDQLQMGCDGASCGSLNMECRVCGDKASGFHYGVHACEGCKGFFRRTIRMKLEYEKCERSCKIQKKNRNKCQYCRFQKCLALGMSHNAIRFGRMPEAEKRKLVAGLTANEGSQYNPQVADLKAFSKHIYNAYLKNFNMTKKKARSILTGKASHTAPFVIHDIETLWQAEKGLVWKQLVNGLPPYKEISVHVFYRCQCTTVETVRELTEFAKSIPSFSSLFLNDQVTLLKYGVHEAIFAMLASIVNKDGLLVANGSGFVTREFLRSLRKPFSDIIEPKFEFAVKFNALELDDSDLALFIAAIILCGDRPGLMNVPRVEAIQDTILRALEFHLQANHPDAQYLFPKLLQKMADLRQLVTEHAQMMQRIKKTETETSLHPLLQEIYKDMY
# [2] = biological target: T2, Bifunctional epoxide hydrolase 2 (Homo sapiens, UniProt P34913); assay: Inhibition of recombinant human […] assessed as product formation preincubated for 30 mins followed by addition of (3-phenyl-cyano-(6-methoxy-2-naphthalenyl)methyl ester-2-oxirane-acetic acid as substrate measured after 30 mins by fluorescence analysis
# T2 sequence (P34913 whole entry): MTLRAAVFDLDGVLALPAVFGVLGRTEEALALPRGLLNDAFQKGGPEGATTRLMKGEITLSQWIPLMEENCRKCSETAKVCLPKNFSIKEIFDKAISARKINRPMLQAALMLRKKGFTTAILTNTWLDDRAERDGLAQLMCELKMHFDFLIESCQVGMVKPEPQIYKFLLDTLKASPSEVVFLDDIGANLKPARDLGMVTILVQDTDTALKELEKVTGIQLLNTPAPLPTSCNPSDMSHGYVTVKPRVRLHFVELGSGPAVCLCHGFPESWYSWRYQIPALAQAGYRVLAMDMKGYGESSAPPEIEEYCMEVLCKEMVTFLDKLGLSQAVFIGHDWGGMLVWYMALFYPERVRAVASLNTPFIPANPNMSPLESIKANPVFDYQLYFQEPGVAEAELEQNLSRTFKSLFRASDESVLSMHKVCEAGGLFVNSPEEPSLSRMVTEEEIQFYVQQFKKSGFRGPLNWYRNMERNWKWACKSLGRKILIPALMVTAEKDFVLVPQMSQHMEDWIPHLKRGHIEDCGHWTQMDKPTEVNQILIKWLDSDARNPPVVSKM
# [3] = biological target: T3, Peroxisome proliferator-activated receptor alpha (Homo sapiens, UniProt Q07869); assay: Agonist activity at Gal4-tagged human PPARalpha ligand binding domain expressed in COS-7 cells measured after overnight incubation by dual-glo luciferase reporter gene assay; assay type: cell-based
# T3 sequence (Q07869 whole entry): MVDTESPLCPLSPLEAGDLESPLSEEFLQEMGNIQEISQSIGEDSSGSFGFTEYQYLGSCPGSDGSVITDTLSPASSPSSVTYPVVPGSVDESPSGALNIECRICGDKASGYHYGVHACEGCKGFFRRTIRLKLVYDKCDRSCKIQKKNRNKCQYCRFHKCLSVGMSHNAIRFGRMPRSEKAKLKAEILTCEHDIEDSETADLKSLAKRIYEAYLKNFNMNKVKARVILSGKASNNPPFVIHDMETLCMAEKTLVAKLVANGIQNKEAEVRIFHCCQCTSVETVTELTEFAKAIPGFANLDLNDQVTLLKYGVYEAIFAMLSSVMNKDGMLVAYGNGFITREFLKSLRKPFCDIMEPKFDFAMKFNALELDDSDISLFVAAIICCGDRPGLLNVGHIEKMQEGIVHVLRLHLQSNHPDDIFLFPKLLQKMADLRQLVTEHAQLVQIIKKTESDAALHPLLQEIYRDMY
# [4] = biological target: T4, Peroxisome proliferator-activated receptor gamma (Homo sapiens, UniProt P37231); assay: Agonist activity at Gal4-tagged human PPARgamma ligand binding domain expressed in COS-7 cells measured after overnight incubation by dual-glo luciferase reporter gene assay; assay type: cell-based
# T4 sequence (P37231 whole entry): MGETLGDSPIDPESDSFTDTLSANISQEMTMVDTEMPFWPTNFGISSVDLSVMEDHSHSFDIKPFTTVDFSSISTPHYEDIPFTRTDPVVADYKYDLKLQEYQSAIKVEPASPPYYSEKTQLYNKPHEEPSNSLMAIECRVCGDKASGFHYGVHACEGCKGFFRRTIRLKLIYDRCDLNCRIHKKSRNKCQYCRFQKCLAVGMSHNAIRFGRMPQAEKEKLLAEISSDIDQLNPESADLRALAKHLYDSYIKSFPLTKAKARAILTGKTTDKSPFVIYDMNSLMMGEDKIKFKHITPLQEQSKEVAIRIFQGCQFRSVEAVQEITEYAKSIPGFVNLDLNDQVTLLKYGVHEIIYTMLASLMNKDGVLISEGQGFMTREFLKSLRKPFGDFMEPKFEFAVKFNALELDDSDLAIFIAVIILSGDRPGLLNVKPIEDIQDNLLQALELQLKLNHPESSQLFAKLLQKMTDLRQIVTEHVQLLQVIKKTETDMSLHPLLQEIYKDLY
# [5] = biological target: T5, Peroxisome proliferator-activated receptor gamma (Homo sapiens) (UniProt P37231); assay: Agonist activity at Gal4-tagged human PPARgamma ligand binding domain expressed in COS-7 cells at 30 uM measured after overnight incubation by dual-glo luciferase reporter gene assay; assay type: cell-based
# T5 sequence (whole entry): T4 sequence (P37231 whole entry)
# [6] = biological target: T6, Peroxisome proliferator-activated receptor delta (Homo sapiens) (UniProt Q03181); assay: Agonist activity at Gal4-tagged human PPARdelta ligand binding domain expressed in COS-7 cells at 30 uM measured after overnight incubation by dual-glo luciferase reporter gene assay; assay type: cell-based
# T6 sequence (whole entry): T1 sequence (Q03181 whole entry)
# [7] = biological target: T7, Peroxisome proliferator-activated receptor alpha (Homo sapiens) (UniProt Q07869); assay: Agonist activity at Gal4-tagged human PPARalpha ligand binding domain expressed in COS-7 cells at 30 uM measured after overnight incubation by dual-glo luciferase reporter gene assay; assay type: cell-based
# T7 sequence (whole entry): T3 sequence (Q07869 whole entry)
# [8] = biological target: T7, Peroxisome proliferator-activated receptor alpha (Homo sapiens); assay: Agonist activity at Gal4-tagged human PPARalpha ligand binding domain expressed in COS-7 cells at 10 um measured after overnight incubation by dual-glo luciferase reporter gene assay; assay type: cell-based
# 3T3-L1 [9] = assay: Partial agonist activity at PPAR in mouse 3T3L1 cells assessed as increase in adipocyte differentiation after 14 days by Oil Red O staining method; assay type: cell-based
# [10] = biological target: T5, Peroxisome proliferator-activated receptor gamma (Homo sapiens); assay: Agonist activity at Gal4-tagged human PPARgamma ligand binding domain expressed in COS-7 cells at 10 uM measured after overnight incubation by dual-glo luciferase reporter gene assay; assay type: cell-based
# 3T3-L1 [11] = assay: Agonist activity at PPAR in mouse 3T3L1 cells assessed as increase in adipocyte differentiation at 2 uM after 14 days by Oil Red O staining method; assay type: cell-based
SMILES,EC50 ([1]; cos-7),IC50 ([2]; read-out: IC50),EC50 ([3]; cos-7),EC50 ([4]; cos-7),further results
CCOC(=O)/C(=C/c1ccc(N2CCC(C(=O)NCc3ccccc3C(F)(F)F)CC2)cc1)CC,Not Active,40 nM,Not Active,Not Active,–
CCOC(=O)C(CC)Cc1ccc(N2CCC(C(=O)NCc3ccccc3C(F)(F)F)CC2)cc1 (configuration not stated),Not Active,23 nM,Not Active,Not Active,–
CCOC(=O)C(C)Oc1ccc(CNC(=O)Nc2ccc(Cl)cc2)cc1 (configuration not stated),–,64 nM,–,–,Activity [5]: inactive; Activity [6]: inactive; Activity [7]: inactive
CCCCCCC(Sc1nc(Cl)cc(Nc2ccc(Nc3ccccc3)cc2)n1)C(=O)O (configuration not stated),Not Active,–,–,–,IC50 [2]: Not Active; EC50 ([3]; read-out: EC50): 67 nM
CCCCCCC(Sc1nc(Cl)cc(NCCCC(=O)NCc2ccccc2C(F)(F)F)n1)C(=O)OCC (configuration not stated),Not Active,1300 nM,Not Active,Not Active,–
CC(C)(Oc1ccc(CCNC(=O)c2ccc(Cl)cc2)cc1)C(=O)O [BEZAFIBRATE],–,–,–,–,EC50 ([1]; read-out: EC50): 22600 nM; IC50 [2]: Not Active; EC50 ([4]; read-out: EC50): 15400 nM
CC(Oc1ccc(CNC(=O)Nc2ccc(Cl)cc2)cc1)C(=O)O (configuration not stated),–,850 nM,–,–,Activity [5]: inactive; Activity [6]: inactive; Activity [7]: inactive
CCCCCCC(Sc1nc(Cl)cc(N2CCC(C(=O)NCc3ccccc3C(F)(F)F)CC2)n1)C(=O)O (configuration not stated),Not Active,300 nM,–,Not Active,Emax [8]: 65%
CCCCCCC(Sc1nc(Cl)cc(NCCCC(=O)NCc2ccccc2C(F)(F)F)n1)C(=O)O (configuration not stated),Not Active,1200 nM,–,–,EC50 ([3]; read-out: EC50): 2500 nM; EC50 ([4]; read-out: EC50): 6000 nM; Activity (3T3-L1 [9]): Dose-dependent effect
O=C(Nc1ccc(I)cc1)NC1CCCCC1,Not Active,–,Not Active,–,Emax [10]: 22%
CC/C(=C\c1ccc(N2CCC(C(=O)NCc3ccccc3C(F)(F)F)CC2)cc1)C(=O)O,Not Active,27 nM,Not Active,Not Active,–
CCCCCCC(Sc1nc(Cl)cc(N2CCC(C(=O)NCc3ccccc3C(F)(F)F)CC2)n1)C(=O)OCC (configuration not stated),Not Active,2500 nM,Not Active,Not Active,–
CCC(Cc1ccc(N2CCC(C(=O)NCc3ccccc3C(F)(F)F)CC2)cc1)C(=O)O (configuration not stated),Not Active,75 nM,Not Active,Not Active,–
CNc1nc(C)nc(N[C@H]2CCC[C@@H](C(=O)NCc3ccc(C#N)cc3C(F)(F)F)C2)n1 [GSK2256294],Not Active,–,Not Active,Not Active,–
CN(CCOc1ccc(CC2SC(=O)NC2=O)cc1)c1ccccn1 (configuration not stated),–,–,–,–,Activity (3T3-L1 [11]): Active
CCOC(=O)C(C)Oc1ccc(CCNC(=O)Nc2ccc(Cl)cc2)cc1 (configuration not stated),–,27 nM,–,–,Activity [5]: inactive; Activity [6]: inactive; Activity [7]: inactive
CC(Oc1ccc(CCNC(=O)Nc2ccc(Cl)cc2)cc1)C(=O)O (configuration not stated),–,570 nM,–,–,Activity [5]: inactive; Activity [6]: inactive; Activity [7]: inactive
